Laboratory results: patent publication EP2439195B1, “NAPHTHALENE CARBOXAMIDE DERIVATIVES AS INHIBITORS OF PROTEIN KINASE AND HISTONE DEACETYLASE, PREPARATION METHODS AND USES THEREOF” (Shenzhen Chipscreen Biosciences, Ltd., priority 2009, dated 2010)
Read-outs that look alike come from different tables or passages of the source.

Tests used:
human PDGFRβ = molecular target: T1, human PDGFRβ (Homo sapiens, UniProt P09619); assay: PDGF dependent cell proliferation (MTS); type: cell-based
T1 construct: expressed in transfected cells
T1 sequence (P09619 33-1106): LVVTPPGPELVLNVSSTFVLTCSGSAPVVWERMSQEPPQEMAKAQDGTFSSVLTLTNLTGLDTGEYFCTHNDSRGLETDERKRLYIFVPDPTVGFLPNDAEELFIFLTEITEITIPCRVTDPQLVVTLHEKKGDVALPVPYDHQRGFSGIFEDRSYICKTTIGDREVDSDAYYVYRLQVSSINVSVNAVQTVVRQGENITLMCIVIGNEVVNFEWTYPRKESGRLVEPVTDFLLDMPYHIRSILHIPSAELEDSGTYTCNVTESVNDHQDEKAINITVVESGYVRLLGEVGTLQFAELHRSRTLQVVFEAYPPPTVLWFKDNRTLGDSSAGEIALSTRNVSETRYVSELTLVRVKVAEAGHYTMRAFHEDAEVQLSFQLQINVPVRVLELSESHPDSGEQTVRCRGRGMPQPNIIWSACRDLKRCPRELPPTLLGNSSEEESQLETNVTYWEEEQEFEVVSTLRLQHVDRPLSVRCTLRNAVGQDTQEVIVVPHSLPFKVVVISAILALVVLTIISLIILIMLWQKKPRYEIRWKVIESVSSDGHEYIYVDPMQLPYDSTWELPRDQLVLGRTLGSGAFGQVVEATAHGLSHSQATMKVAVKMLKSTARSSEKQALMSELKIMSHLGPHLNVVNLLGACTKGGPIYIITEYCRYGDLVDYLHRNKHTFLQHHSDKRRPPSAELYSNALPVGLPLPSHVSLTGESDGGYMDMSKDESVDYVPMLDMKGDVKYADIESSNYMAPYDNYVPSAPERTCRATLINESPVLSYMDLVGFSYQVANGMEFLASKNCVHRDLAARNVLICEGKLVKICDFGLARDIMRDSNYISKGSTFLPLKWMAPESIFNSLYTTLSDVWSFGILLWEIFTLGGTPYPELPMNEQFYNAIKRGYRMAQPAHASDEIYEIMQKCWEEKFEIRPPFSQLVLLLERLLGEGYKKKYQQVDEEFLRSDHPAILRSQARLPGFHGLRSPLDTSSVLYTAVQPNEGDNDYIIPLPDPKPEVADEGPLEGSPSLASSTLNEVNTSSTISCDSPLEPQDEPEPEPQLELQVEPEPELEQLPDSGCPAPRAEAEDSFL
Protocol: NIH-3T3 mouse fibroblasts cell line engineered to stably express human PDGFRβ was constructed and used to evaluate PDGF dependent cell proliferation. PDGFRβ NIH-3T3 cells were plated into 96-well plates at 5,000 per well and incubated overnight with serum-free medium after 24 hours. Compounds to be tested and PDGF BB (50ng/ml) were added and incubated for 72 hours in serum-free medium. The effects on proliferation were determined by MTS method (Promega) according to the instruction. Incubation was performed for 2 hours at 37°C in CO2 incubator, and absorbance at 490nm was measured using an ELISA plate reader.

HUVEC cells = assay: VEGF dependent cell proliferation (MTS); type: cell-based; conditions: Homo sapiens, VEGF 165 (50ng/ml), 72 hours, serum-free medium, read-out: Gl50 nM (VEGF ligand-dependent cell proliferation)
Protocol: HUVEC cells were plated into 96-well plates at 6,000 per well and after 24 hours incubated with serum-free medium for 2 hours. Compounds to be tested and VEGF 165 (50ng/ml) were added and incubated for 72 hours in serum-free medium. The effects on cell proliferation were determined by MTS method (Promega) according to the instruction. Incubation was performed for 2 hours at 37°C in CO2 incubator, and absorbance at 490nm was determined using an ELISA plate reader.

total HDAC enzyme = assay: In vitro total HDAC enzyme activity (HDAC Fluorimetric Assay/Drug Discovery Kit, HeLa cell nuclear extract); type: biochemical
Protocol: The in vitro total HDAC enzyme activity was determined by HDAC Fluorimetric Assay/Drug Discovery Kit (BIOMOL) according to manufacture's instruction. The principle of the experiment is as follows: under the action of histone deacetylase (in the experiment, HeLa cell nuclear extract, which was rich in a variety of subtypes of HDAC, was used), an acetyl group is removed from a special substrate Fluor de Lys, thus the free amino is exposed. Upon Developer is added, the substrate will produce fluorescence. For the fluorescence, excitation wavelength is 360nm, and emission wavelength is 460nm. More fully the substrate deacetylated, more higher the fluorescence induced. In the absence of inhibitors, the fluorescence value is taken as the control; when inhibitor is existed, fluorescence value induced will be reduced, while in the case no enzyme is existed (corresponding to the completely inhibition of enzyme activity) the fluorescence value is blank. Generally, after suppression the fluorescence values will be between the control and blank. When analysis is made, blank will be used as 0, and the control will be used as 1. Smaller value means higher inhibitory activity. 1. Add Assay buffer, diluted trichostatin A and test inhibitor to appropriate wells of the microtiter plate. Following table lists the amounts used for each regent of various assay types.
2. Add diluted HeLa nucleoprotein extract to all wells except those that are marked as "blank". 3. Allow diluted Fluor de Lys™ Substrate and the samples in the microtiter plate to equilibrate to 25°C. 4. Initiate HDAC reactions by adding diluted substrate (25 µl) to each well and mixing thoroughly. 5. Allow reactions to proceed for 30 minutes and then stop them by addition of Fluor de Lys™ Developer (50 µl). Incubate plate at room temperature (25°C) for 10-15 min. 6. Read fluorescence of samples on a microtiter-plate reading fluorimeter at a excitation wavelength of 369 nm and a emitted wavelength of 451 nm.

Class I HDAC = assay: HDAC subtype selectivity reporter gene assay (P21 reporter, HeLa cells); type: cell-based; conditions: Homo sapiens, read-out: Class I HDAC (P21 reporter assay) Fold Induction at 10µM
Protocol: Different HDAC subtypes can bind with different transcriptional factors and involve in expression regulation of various genes. Suitable regulation elements for transcriptional factors are selected to construct reporter genes, which can be used to evaluate the selective inhibition of inhibors on HDAC subtypes. Briefly, HeLa cells were seeded in 96-well plates the day before transfection to give a confluence of 50-80% when transfection. Cells were transfected with one of reporter gene plasmid containing a p21-promoter sequence or response element upstream of a luciferase gene construct using FuGene6 transfection reagent according to the manufacturer's instruction (Roche). For normalizing the transfection efficiency, a GFP expression plasmid was cotransfected. After 24 hours compounds or the vehicle control (DMSO) were added. 24 hours later the cells were harvested and lysed, and the amount of the luciferase was evaluated using luciferase assay kits (Promega) according to the manufacturer's instructions.

A-498 = assay: Tumor cell proliferation (MTS), A-498; type: cell-based; conditions: Homo sapiens, A498; A-498, 72 hours; read-out: Gl50 µM in A-498
Protocol: (§1) Tumor cells were trypsinized and plated into 96-well plates at 3,000 per well and incubated in complete medium with 10% FBS for 24 hours. Compounds to be tested and vehicle control were added, and the final concentration of compound is in the range of 100 nmol/L to 100 µmol/L. The compounds were incubated for 72 hours in complete medium. The MTS reagent (Promega) was added according to the instruction, incubated for 2 hours at 37°C in CO2 incubator. Then absorbance at 490nm is read using an ELISA plate reader.

A549 = assay: Tumor cell proliferation (MTS), A549; type: cell-based; conditions: Homo sapiens; A549, 72 hours; read-out: Gl50 µM in A549
Protocol: as §1

Bel-7402 = assay: Tumor cell proliferation (MTS), Bel-7402; type: cell-based; conditions: Homo sapiens; Bel-7402, 72 hours; read-out: Gl50 µM in Bel-7402
Protocol: as §1

HCT-8 = assay: Tumor cell proliferation (MTS), HCT-8; type: cell-based; conditions: Homo sapiens; HCT-8, 72 hours; read-out: Gl50 µM in HCT-8
Protocol: as §1

MCF-7 = assay: Tumor cell proliferation (MTS), MCF-7; type: cell-based; conditions: Homo sapiens, MCF7; MCF-7, 72 hours; read-out: Gl50 µM in MCF-7
Protocol: as §1

[1] = PDGFRβ NIH-3T3 cells, PDGF BB (50ng/ml), 72 hours, serum-free medium; read-out: Gl50 nM (PDGF ligand-dependent cell proliferation)
[2] = read-out: Gl50 nM (PDGF ligand-dependent cell proliferation); PDGFRβ NIH-3T3 cells, PDGF BB (50ng/ml), 72 hours, serum-free medium

## COc1cc2ncnc(Oc3ccc4c(C(=O)NCc5ccc(C(=O)Nc6ccccc6N)cc5)cccc4c3)c2cc1OC [Compound 23, N-(4-((2-aminophenyl)carbamoyl)benzyl)-6-(6,7-dimethoxyquinazolin-4-yloxy)-1-naphthamide]
Human PDGFRβ; [1]
  IC50: 148 nM
HUVEC cells
  IC50: 18 nM
Total HDAC enzyme
  % inhibition of total HDAC enzyme activity at 30µM: 49.4%
Class I HDAC; 10µM, HeLa cells, 24 hours
  fold induction at 10 µM: 11.3
A-498
  IC50: 14.7 µM
A549
  IC50: 30 µM
Bel-7402
  IC50: 30 µM
HCT-8
  IC50: 5.7 µM
MCF-7
  IC50: 4.3 µM

## Nc1cc(F)ccc1NC(=O)c1ccc(CNC(=O)/C=C/c2cccnc2)cc1 [CS055, Chidamide, reference compound]
Class I HDAC; 10µM, HeLa cells, 24 hours
  fold induction at 10 µM: 33
A-498
  IC50: 12.1 µM
A549
  IC50: 11.2 µM
Bel-7402
  IC50: 18.9 µM
HCT-8
  IC50: 7.71 µM
MCF-7
  IC50: 3.87 µM

## COc1cc2ncnc(Oc3ccc4c(C(=O)NCc5ccc(C(=O)Nc6ccccc6N)cn5)cccc4c3)c2cc1OC [Compound 25]
Human PDGFRβ; [2]
  IC50: 69 nM
HUVEC cells
  IC50: 13 nM
Total HDAC enzyme
  % inhibition of total HDAC enzyme activity at 30µM: 47.9%
Class I HDAC; HeLa, 24 h
  fold induction at 10 µM: 12.1
A-498
  IC50: 14.7 µM
A549
  IC50: 30 µM
Bel-7402
  IC50: 30 µM
HCT-8
  IC50: 4.9 µM
MCF-7
  IC50: 6.1 µM

## COc1cc2nccc(Oc3ccc4c(C(=O)Nc5ccc(F)cc5N)cccc4c3)c2cc1OC [Compound 36, N-(2-amino-4-fluorophenyl)-6-(6,7-dimethoxyquinolin-4-yloxy)-1-naphthamide]
Human PDGFRβ; [1]
  IC50: 3 nM
HUVEC cells
  IC50: 2 nM
Total HDAC enzyme
  % inhibition of total HDAC enzyme activity at 30µM: 14.4%
Class I HDAC; 10µM, HeLa cells, 24 hours
  fold induction at 10 µM: 1.2
A-498
  IC50: 4.2 µM
A549
  IC50: 7.4 µM
Bel-7402
  IC50: 12.1 µM
HCT-8
  IC50: 4.1 µM
MCF-7
  IC50: 8.9 µM

## COc1ccc2c(Oc3ccc4c(C(=O)Nc5ccc(F)cc5N)cccc4c3)ccnc2c1 [Compound 32, N-(2-amino-4-fluorophenyl)-6-(7-methoxyquinolin-4-yloxy)-1-naphthamide]
Human PDGFRβ; [1]
  IC50: 20 nM
HUVEC cells
  IC50: 2 nM
Total HDAC enzyme
  % inhibition of total HDAC enzyme activity at 30µM: 21.7%
Class I HDAC; 10µM, HeLa cells, 24 hours
  fold induction at 10 µM: 1.8
A-498
  IC50: 7.5 µM
A549
  IC50: 8.3 µM
Bel-7402
  IC50: 17.3 µM
HCT-8
  IC50: 6.6 µM
MCF-7
  IC50: 15.9 µM

## COc1cc2nccc(Oc3ccc4c(C(=O)Nc5ccccc5N)cccc4c3)c2cc1OC [Compound 35, N-(2-aminophenyl)-6-(6,7-dimethoxyquinolin-4-yloxy)-1-naphthamide]
Human PDGFRβ; [1]
  IC50: 5 nM
HUVEC cells
  IC50: 1 nM
Total HDAC enzyme
  % inhibition of total HDAC enzyme activity at 30µM: 19.3%
Class I HDAC; 10µM, HeLa cells, 24 hours
  fold induction at 10 µM: 1.2
A-498
  IC50: 9.1 µM
A549
  IC50: 7.7 µM
Bel-7402
  IC50: 19.5 µM
HCT-8
  IC50: 8.9 µM
MCF-7
  IC50: 13.3 µM

## COc1cc2ncnc(Oc3ccc4c(C(=O)Nc5ccccc5N)cccc4c3)c2cc1OC [Compound 16, N-(2-aminophenyl)-6-(6,7-dimethoxyquinazolin-4-yloxy)-1-naphthamide]
Human PDGFRβ; [1]
  IC50: 48 nM
HUVEC cells
  IC50: 3 nM
Total HDAC enzyme
  % inhibition of total HDAC enzyme activity at 30µM: 8.6%
Class I HDAC; 10µM, HeLa cells, 24 hours
  fold induction at 10 µM: 1.3
A-498
  IC50: 30 µM
A549
  IC50: 30 µM
Bel-7402
  IC50: 30 µM
HCT-8
  IC50: 12.3 µM
MCF-7
  IC50: 30 µM

## COc1cc2ncnc(Oc3ccc4c(C(=O)Nc5ccc(F)cc5N)cccc4c3)c2cc1OC [Compound 17, N-(2-amino-4-fluorophenyl)-6-(6,7-dimethoxyquinazolin-4-yloxy)-1-naphthamide]
Human PDGFRβ; [1]
  IC50: 40 nM
HUVEC cells
  IC50: 3 nM
Total HDAC enzyme
  % inhibition of total HDAC enzyme activity at 30µM: 22.5%
Class I HDAC; 10µM, HeLa cells, 24 hours
  fold induction at 10 µM: 1.1
A-498
  IC50: 30 µM
A549
  IC50: 30 µM
Bel-7402
  IC50: 30 µM
HCT-8
  IC50: 3 µM
MCF-7
  IC50: 30 µM

## COc1cc2nccc(Oc3ccc4c(C(=O)NCc5ccc(C(=O)Nc6ccccc6N)cn5)cccc4c3)c2cc1OC [Compound 38]
Human PDGFRβ; [2]
  IC50: 74 nM
HUVEC cells
  IC50: 25 nM
Total HDAC enzyme
  % inhibition of total HDAC enzyme activity at 30µM: 39.3%
Class I HDAC; HeLa, 24 h
  fold induction at 10 µM: 3.1
A-498
  IC50: 6.9 µM
A549
  IC50: 30 µM
Bel-7402
  IC50: 30 µM
HCT-8
  IC50: 8 µM
MCF-7
  IC50: 9.4 µM
